From ChEMBL document CHEMBL3286303, “Synthesis and in vitro antiproliferative evaluation of novel N-alkylated 6-isobutyl- and propyl pyrimidine derivatives” (Bioorg Med Chem Lett, 2014)
Activity calls are given as the source filed them. No cut-off for these calls is given here.

Assays:
MCF7 [1] = assay: Cell cycle arrest in human MCF7 cells as assessed as accumulation at sub-G1 phase at 1 uM after 24 hrs by propidium iodide staining-based flow cytometric analysis relative to control; assay type: functional
WI-38 [2] = assay: Cell cycle arrest in human WI38 cells as assessed as accumulation at G2/M phase at 0.1 uM after 24 hrs by propidium iodide staining-based flow cytometric analysis relative to control; settings: wi-38, 24 h
WI-38 [3] = assay: Cell cycle arrest in human WI38 cells as assessed as accumulation at S phase at 0.1 uM after 48 hrs by propidium iodide staining-based flow cytometric analysis relative to control; settings: wi-38, 48 h
MCF7 [4] = assay: Cell cycle arrest in human MCF7 cells as assessed as accumulation at G1 phase at 0.1 uM after 48 hrs by propidium iodide staining-based flow cytometric analysis relative to control; assay type: functional
WI-38 [5] = assay: Cell cycle arrest in human WI38 cells as assessed as accumulation at G1 phase at 0.1 uM after 24 hrs by propidium iodide staining-based flow cytometric analysis relative to control; settings: wi-38, 24 h
SW-620 [6] = assay: Antiadhesive activity against human SW620 cells at 5 uM after 2 to 24 hrs by crystal-violet staining-based microscopic analysis; assay type: functional, cell-based
MCF7 [7] = assay: Cell cycle arrest in human MCF7 cells as assessed as accumulation at S phase at 1 uM after 24 hrs by propidium iodide staining-based flow cytometric analysis relative to control; assay type: functional
WI-38 [8] = assay: Cell cycle arrest in human WI38 cells as assessed as accumulation at sub-G1 phase at 1 uM after 24 hrs by propidium iodide staining-based flow cytometric analysis relative to control; settings: wi-38, 24 h
WI-38 [9] = assay: Cell cycle arrest in human WI38 cells as assessed as accumulation at G1 phase at 1 uM after 48 hrs by propidium iodide staining-based flow cytometric analysis relative to control; settings: wi-38, 48 h
HeLa = assay: Antiproliferative activity against human HeLa cells after 72 hrs by MTT assay; assay type: functional, cell-based
WI-38 [10] = assay: Cell cycle arrest in human WI38 cells as assessed as accumulation at G1 phase at 0.1 uM after 48 hrs by propidium iodide staining-based flow cytometric analysis relative to control; settings: wi-38, 48 h
K562 [11] = assay: Cell cycle arrest in human K562 cells as assessed as accumulation at G2/M phase at 0.1 uM after 48 hrs by propidium iodide staining-based flow cytometric analysis relative to control; assay type: functional
SW-620 [12] = assay: Antiproliferative activity against human SW620 cells after 72 hrs by MTT assay; assay type: functional, cell-based
WI-38 [13] = assay: Antiproliferative activity against human WI38 cells after 72 hrs by MTT assay; assay type: cell-based
K562 [14] = assay: Cell cycle arrest in human K562 cells as assessed as accumulation at sub-G1 phase at 0.5 uM after 24 hrs by propidium iodide staining-based flow cytometric analysis relative to control; assay type: functional
K562 [15] = assay: Cell cycle arrest in human K562 cells as assessed as accumulation at G1 phase at 0.1 uM after 48 hrs by propidium iodide staining-based flow cytometric analysis relative to control; assay type: functional
MCF7 [16] = assay: Cell cycle arrest in human MCF7 cells as assessed as accumulation at sub-G1 phase at 0.1 uM after 24 hrs by propidium iodide staining-based flow cytometric analysis relative to control; assay type: functional
K562 [17] = assay: Cell cycle arrest in human K562 cells as assessed as accumulation at sub-G1 phase at 1 uM after 48 hrs by propidium iodide staining-based flow cytometric analysis relative to control; assay type: functional
WI-38 [18] = assay: Cell cycle arrest in human WI38 cells as assessed as accumulation at G1 phase at 1 uM after 24 hrs by propidium iodide staining-based flow cytometric analysis relative to control; settings: wi-38, 24 h
K562 [19] = assay: Cell cycle arrest in human K562 cells as assessed as accumulation at S phase at 0.1 uM after 24 hrs by propidium iodide staining-based flow cytometric analysis relative to control; assay type: functional
SW-620 [20] = assay: Cell cycle arrest in human SW620 cells as assessed as accumulation at sub-G1 phase at 0.1 uM after 24 hrs by propidium iodide staining-based flow cytometric analysis relative to control; assay type: functional
MCF7 [21] = assay: Cell cycle arrest in human MCF7 cells as assessed as accumulation at G2/M phase at 1 uM after 24 hrs by propidium iodide staining-based flow cytometric analysis relative to control; assay type: functional
WI-38 [22] = assay: Cell cycle arrest in human WI38 cells as assessed as accumulation at sub-G1 phase at 1 uM after 48 hrs by propidium iodide staining-based flow cytometric analysis relative to control; settings: wi-38, 48 h
MCF7 [23] = assay: Antiadhesive activity against human MCF7 cells at 5 uM after 2 to 24 hrs by crystal-violet staining-based microscopic analysis; assay type: functional, cell-based
K562 [24] = assay: Cell cycle arrest in human K562 cells as assessed as accumulation at G1 phase at 0.5 uM after 24 hrs by propidium iodide staining-based flow cytometric analysis relative to control; assay type: functional
MCF7 [25] = assay: Cell cycle arrest in human MCF7 cells as assessed as accumulation at G1 phase at 1 uM after 24 hrs by propidium iodide staining-based flow cytometric analysis relative to control; assay type: functional
MCF7 [26] = assay: Cell cycle arrest in human MCF7 cells as assessed as accumulation at G2/M phase at 0.1 uM after 24 hrs by propidium iodide staining-based flow cytometric analysis relative to control; assay type: functional
WI-38 [27] = assay: Cell cycle arrest in human WI38 cells as assessed as accumulation at sub-G1 phase at 0.1 uM after 48 hrs by propidium iodide staining-based flow cytometric analysis relative to control; settings: wi-38, 48 h
K562 [28] = assay: Cell cycle arrest in human K562 cells as assessed as accumulation at sub-G1 phase at 0.1 uM after 48 hrs by propidium iodide staining-based flow cytometric analysis relative to control; assay type: functional
MCF7 [29] = assay: Antiproliferative activity against human MCF7 cells after 72 hrs by MTT assay; assay type: functional, cell-based
K562 [30] = assay: Cell cycle arrest in human K562 cells as assessed as accumulation at G1 phase at 0.5 uM after 48 hrs by propidium iodide staining-based flow cytometric analysis relative to control; assay type: functional
BJ = assay: Antiproliferative activity against human BJ cells after 72 hrs by PrestoBlue colorimetric assay; assay type: cell-based
K562 [31] = assay: Cell cycle arrest in human K562 cells as assessed as accumulation at S phase at 0.5 uM after 48 hrs by propidium iodide staining-based flow cytometric analysis relative to control; assay type: functional
K562 [32] = assay: Cell cycle arrest in human K562 cells as assessed as accumulation at G1 phase at 1 uM after 24 hrs by propidium iodide staining-based flow cytometric analysis relative to control; assay type: functional
MCF7 [33] = assay: Cell cycle arrest in human MCF7 cells as assessed as accumulation at S phase at 1 uM after 48 hrs by propidium iodide staining-based flow cytometric analysis relative to control; assay type: functional
K562 [34] = assay: Cell cycle arrest in human K562 cells as assessed as accumulation at S phase at 1 uM after 48 hrs by propidium iodide staining-based flow cytometric analysis relative to control; assay type: functional
WI-38 [35] = assay: Cell cycle arrest in human WI38 cells as assessed as accumulation at G2/M phase at 1 uM after 48 hrs by propidium iodide staining-based flow cytometric analysis relative to control; settings: wi-38, 48 h
WI-38 [36] = assay: Cell cycle arrest in human WI38 cells as assessed as accumulation at sub-G1 phase at 0.1 uM after 24 hrs by propidium iodide staining-based flow cytometric analysis relative to control; settings: wi-38, 24 h

Activity (WI-38 [2]): 6.9% | Activity (WI-38 [3]): 6.8% | Activity (WI-38 [5]): 61.7% | Activity (WI-38 [8]): 21% | Activity (WI-38 [9]): 45.5% | IC50 (HeLa): 300 nM | Activity (WI-38 [10]): 48.5% | IC50 (SW-620 [12]; SW-620, 72 h): 500 nM | Activity (WI-38 [18]): 70.1% | Activity (WI-38 [22]): 47.9% | Activity (WI-38 [27]): 38.5% | IC50 (MCF7 [29]; MCF7, 72 h): 400 nM | Activity (WI-38 [35]): 3.5% | Activity (WI-38 [36]): 21.9%
SMILES: COCn1c(CC(COCc2ccccc2)COCc2ccccc2)c(C)c(=O)n(COC)c1=O
Activity (MCF7 [1]): 67.1% | Activity (MCF7 [4]): 23.8% | Activity (SW-620 [6]): Active | Activity (MCF7 [7]): 8.1% | Activity (HeLa): Dose-dependent effect | Activity (K562 [11]): 23.5% | Activity (SW-620 [12]): Dose-dependent effect | IC50 (WI-38 [13]; Homo sapiens, WI-38, 72 h): 300 nM | Activity (WI-38 [13]; human, wi-38, 72 h): Dose-dependent effect | Activity (K562 [14]): 3.3% | Activity (K562 [15]): 49.8% | Activity (MCF7 [16]): 55.5% | Activity (K562 [17]): 4.2% | Activity (K562 [19]): 28.6% | Activity (SW-620 [20]): 4.3% | Activity (MCF7 [21]): 8.7% | Activity (MCF7 [23]): Active | Activity (K562 [24]): 85.8% | Activity (MCF7 [25]): 14.8% | Activity (MCF7 [26]): 7.1% | Activity (K562 [28]): 3% | Activity (MCF7 [29]): Dose-dependent effect | Activity (K562 [30]): 64.4% | IC50 (BJ): 5300 nM | Activity (K562 [31]): 18.2% | Activity (K562 [32]): 53% | Activity (MCF7 [33]): 4.9% | Activity (K562 [34]): 25.9%
